Experimental data from PubChem BioAssay (NCI).
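96-well plates; 48 h exposure; 5 concentrations. Endpoints by linear interpolation between flanking doses. Not reached: highest tested concentration assigned. GI50 is the concentration that inhibits growth by half. TGI denotes the concentration required for complete inhibition of growth.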

How the values were obtained:
Experiment in all cases: inhibition of tumour cell growth, NCI panel, 48 h
786-0 renal = system: 786-0 renal
A498 renal = system: A498 renal
A549 NSCLC = system: A549 NSCLC
ACHN renal = system: ACHN renal
BT-549 breast = system: BT-549 breast
CAKI-1 renal = system: CAKI-1 renal
CCRF-CEM leukemia = system: CCRF-CEM leukemia
COLO 205 colon = system: COLO 205 colon
DU-145 prostate = system: DU-145 prostate
EKVX NSCLC = system: EKVX NSCLC
HCC-2998 colon = system: HCC-2998 colon
HCT-116 colon = system: HCT-116 colon
HCT-15 colon = system: HCT-15 colon
HL-60(TB) leukemia = system: HL-60(TB) leukemia
HOP-62 NSCLC = system: HOP-62 NSCLC
HOP-92 NSCLC = system: HOP-92 NSCLC
HS 578T breast = system: HS 578T breast
HT29 colon = system: HT29 colon
IGROV1 ovarian = system: IGROV1 ovarian
K-562 leukemia = system: K-562 leukemia
KM12 colon = system: KM12 colon
LOX IMVI melanoma = system: LOX IMVI melanoma
M14 melanoma = system: M14 melanoma
MALME-3M melanoma = system: MALME-3M melanoma
MCF7 breast = system: MCF7 breast
MDA-MB-231 breast = system: MDA-MB-231 breast
MDA-MB-435 = system: MDA-MB-435
MOLT-4 leukemia = system: MOLT-4 leukemia
NCI-H226 lung = system: NCI-H226 lung
NCI-H23 lung = system: NCI-H23 lung
NCI-H460 lung = system: NCI-H460 lung
NCI-H522 lung = system: NCI-H522 lung
NCI/ADR-RES ovarian = system: NCI/ADR-RES ovarian
OVCAR-3 ovarian = system: OVCAR-3 ovarian
OVCAR-4 ovarian = system: OVCAR-4 ovarian
OVCAR-5 ovarian = system: OVCAR-5 ovarian
OVCAR-8 ovarian = system: OVCAR-8 ovarian
PC-3 prostate = system: PC-3 prostate
RPMI-8226 leukemia = system: RPMI-8226 leukemia
RXF 393 renal = system: RXF 393 renal
SF-268 CNS = system: SF-268 CNS
SF-295 CNS = system: SF-295 CNS
SF-539 CNS = system: SF-539 CNS
SK-MEL-2 melanoma = system: SK-MEL-2 melanoma
SK-MEL-28 melanoma = system: SK-MEL-28 melanoma
SK-MEL-5 melanoma = system: SK-MEL-5 melanoma
SK-OV-3 ovarian = system: SK-OV-3 ovarian
SN12C renal = system: SN12C renal
SNB-19 CNS = system: SNB-19 CNS
SNB-75 CNS = system: SNB-75 CNS
SR leukemia = system: SR leukemia
SW-620 colon = system: SW-620 colon
T-47D breast = system: T-47D breast
TK-10 renal = system: TK-10 renal
U251 CNS = system: U251 CNS
UACC-257 melanoma = system: UACC-257 melanoma
UACC-62 melanoma = system: UACC-62 melanoma
UO-31 renal = system: UO-31 renal
MDA-N = system: MDA-N

## O=Cc1cn(Cc2ccc(Cl)cc2)c2ccccc12
786-0 renal
  GI50: 13600 nM
  TGI: 64500 nM
A498 renal
  GI50: 34.2 nM
  TGI: 172 nM
A549 NSCLC
  GI50: 13400 nM
  TGI: > 100000 nM
ACHN renal
  GI50: 27400 nM
  TGI: > 100000 nM
BT-549 breast
  GI50: 11400 nM
  TGI: 49200 nM
CAKI-1 renal
  GI50: 101 nM
  TGI: 3420 nM
CCRF-CEM leukemia
  GI50: 19700 nM
  TGI: > 100000 nM
COLO 205 colon
  GI50: 2170 nM
  TGI: 20700 nM
DU-145 prostate
  GI50: 22300 nM
  TGI: > 100000 nM
EKVX NSCLC
  GI50: 21000 nM
  TGI: > 100000 nM
HCC-2998 colon
  GI50: 14300 nM
  TGI: > 100000 nM
HCT-116 colon
  GI50: 4830 nM
  TGI: 30000 nM
HCT-15 colon
  GI50: 15500 nM
  TGI: > 100000 nM
HL-60(TB) leukemia
  GI50: 22500 nM
  TGI: 72800 nM
HOP-62 NSCLC
  GI50: 2630 nM
  TGI: > 100000 nM
HOP-92 NSCLC
  GI50: 4430 nM
  TGI: 49000 nM
HS 578T breast
  GI50: 19200 nM
  TGI: > 100000 nM
HT29 colon
  GI50: 24400 nM
  TGI: > 100000 nM
IGROV1 ovarian
  GI50: 1220 nM
  TGI: 39400 nM
K-562 leukemia
  GI50: 4210 nM
  TGI: > 100000 nM
KM12 colon
  GI50: 26400 nM
  TGI: > 100000 nM
LOX IMVI melanoma
  GI50: 12100 nM
  TGI: > 95000 nM
M14 melanoma
  GI50: 15200 nM
  TGI: 72500 nM
MALME-3M melanoma
  GI50: 14300 nM
  TGI: 43300 nM
MCF7 breast
  GI50: 4120 nM
  TGI: > 67200 nM
MDA-MB-231 breast
  GI50: 9700 nM
  TGI: > 56300 nM
MDA-MB-435
  GI50: 23000 nM
  TGI: > 100000 nM
MOLT-4 leukemia
  GI50: 17900 nM
  TGI: > 82700 nM
NCI-H226 lung
  GI50: 41 nM
  TGI: 251 nM
NCI-H23 lung
  GI50: 8370 nM
  TGI: > 100000 nM
NCI-H460 lung
  GI50: 115 nM
  TGI: 11200 nM
NCI-H522 lung
  GI50: 73200 nM
  TGI: > 100000 nM
NCI/ADR-RES ovarian
  GI50: 13900 nM
  TGI: > 100000 nM
OVCAR-3 ovarian
  GI50: 6640 nM
  TGI: 61700 nM
OVCAR-4 ovarian
  GI50: 4390 nM
  TGI: > 100000 nM
OVCAR-5 ovarian
  GI50: 82 nM
  TGI: 659 nM
OVCAR-8 ovarian
  GI50: 23500 nM
  TGI: > 100000 nM
PC-3 prostate
  GI50: 12800 nM
  TGI: 73200 nM
RPMI-8226 leukemia
  GI50: 7140 nM
  TGI: > 100000 nM
RXF 393 renal
  GI50: 4590 nM
  TGI: 51800 nM
SF-268 CNS
  GI50: 21400 nM
  TGI: > 100000 nM
SF-295 CNS
  GI50: 992 nM
  TGI: 34900 nM
SF-539 CNS
  GI50: 16600 nM
  TGI: 50300 nM
SK-MEL-2 melanoma
  GI50: 8490 nM
  TGI: 66100 nM
SK-MEL-28 melanoma
  GI50: 33600 nM
  TGI: > 100000 nM
SK-MEL-5 melanoma
  GI50: 8180 nM
  TGI: 22300 nM
SK-OV-3 ovarian
  GI50: 1840 nM
  TGI: 44800 nM
SN12C renal
  GI50: 14900 nM
  TGI: > 100000 nM
SNB-19 CNS
  GI50: 19400 nM
  TGI: > 100000 nM
SNB-75 CNS
  GI50: 8260 nM
  TGI: > 100000 nM
SR leukemia
  GI50: 16500 nM
  TGI: > 79400 nM
SW-620 colon
  GI50: 13200 nM
  TGI: > 100000 nM
T-47D breast
  GI50: 1840 nM
  TGI: 69700 nM
TK-10 renal
  GI50: 162 nM
  TGI: 1520 nM
U251 CNS
  GI50: 13300 nM
  TGI: > 100000 nM
UACC-257 melanoma
  GI50: 2050 nM
  TGI: 7440 nM
UACC-62 melanoma
  GI50: 1320 nM
  TGI: 9090 nM
UO-31 renal
  GI50: 3350 nM
  TGI: 45400 nM

## COc1ccc2c(ccc3c(C(=O)NCCN(C)CCNC(=O)c4cn(C)c5c4ccc4cc(OC)ccc45)cn(C)c32)c1
A498 renal
  TGI: > 100000 nM
DU-145 prostate
  TGI: 3320 nM
HCC-2998 colon
  TGI: 2790 nM
HCT-15 colon
  TGI: 2520 nM
HOP-62 NSCLC
  TGI: 2750 nM
HT29 colon
  TGI: 2700 nM
KM12 colon
  TGI: 3020 nM
M14 melanoma
  TGI: 3000 nM
MDA-N
  TGI: 2910 nM
OVCAR-3 ovarian
  TGI: 2830 nM
PC-3 prostate
  TGI: 2840 nM
SN12C renal
  TGI: 2820 nM
U251 CNS
  TGI: > 100000 nM

## O=C(Nc1ccc([As]=[As]c2ccc(NC(=O)c3ccccc3)cc2)cc1)c1ccccc1 (stereo not given)
786-0 renal
  GI50: 454 nM
  TGI: 1670 nM
A498 renal
  GI50: 1150 nM
  TGI: 2360 nM
A549 NSCLC
  GI50: 1840 nM
  TGI: 3590 nM
ACHN renal
  GI50: 1190 nM
  TGI: 2450 nM
BT-549 breast
  GI50: 343 nM
  TGI: 1190 nM
CAKI-1 renal
  GI50: 582 nM
  TGI: 1890 nM
CCRF-CEM leukemia
  GI50: 136 nM
  TGI: 428 nM
COLO 205 colon
  GI50: 239 nM
  TGI: 769 nM
DU-145 prostate
  GI50: 1440 nM
  TGI: 2750 nM
EKVX NSCLC
  GI50: 1180 nM
  TGI: 2640 nM
HCC-2998 colon
  GI50: 1240 nM
  TGI: 2500 nM
HCT-116 colon
  GI50: 234 nM
  TGI: 624 nM
HCT-15 colon
  GI50: 302 nM
  TGI: 1360 nM
HL-60(TB) leukemia
  GI50: 328 nM
  TGI: 2090 nM
HOP-62 NSCLC
  GI50: 1240 nM
  TGI: 2640 nM
HOP-92 NSCLC
  GI50: 179 nM
  TGI: 642 nM
HS 578T breast
  GI50: 478 nM
  TGI: 6320 nM
HT29 colon
  GI50: 1420 nM
  TGI: 3440 nM
IGROV1 ovarian
  GI50: 756 nM
  TGI: 2250 nM
K-562 leukemia
  GI50: 215 nM
  TGI: 560 nM
KM12 colon
  GI50: 1690 nM
  TGI: 3120 nM
LOX IMVI melanoma
  GI50: 262 nM
  TGI: 786 nM
M14 melanoma
  GI50: 1130 nM
  TGI: 2490 nM
MALME-3M melanoma
  GI50: 184 nM
  TGI: 571 nM
MCF7 breast
  GI50: 208 nM
  TGI: 547 nM
MDA-MB-231 breast
  GI50: 323 nM
  TGI: 1330 nM
MDA-MB-435
  GI50: 734 nM
  TGI: 2110 nM
MOLT-4 leukemia
  GI50: 339 nM
  TGI: 1840 nM
NCI-H226 lung
  GI50: 662 nM
  TGI: 1640 nM
NCI-H23 lung
  GI50: 391 nM
  TGI: 1480 nM
NCI-H460 lung
  GI50: 2030 nM
  TGI: 4510 nM
NCI-H522 lung
  GI50: 74.3 nM
  TGI: 217 nM
NCI/ADR-RES ovarian
  GI50: 1320 nM
  TGI: 2650 nM
OVCAR-3 ovarian
  GI50: 285 nM
  TGI: 812 nM
OVCAR-4 ovarian
  GI50: 466 nM
  TGI: 1810 nM
OVCAR-5 ovarian
  GI50: 1170 nM
  TGI: 2530 nM
OVCAR-8 ovarian
  GI50: 333 nM
  TGI: 1220 nM
PC-3 prostate
  GI50: 1180 nM
  TGI: 2460 nM
RPMI-8226 leukemia
  GI50: 247 nM
  TGI: 728 nM
RXF 393 renal
  GI50: 192 nM
  TGI: 499 nM
SF-268 CNS
  GI50: 424 nM
  TGI: 1590 nM
SF-295 CNS
  GI50: 1510 nM
  TGI: 3080 nM
SF-539 CNS
  GI50: 381 nM
  TGI: 1530 nM
SK-MEL-2 melanoma
  GI50: 334 nM
  TGI: 1010 nM
SK-MEL-28 melanoma
  GI50: 214 nM
  TGI: 531 nM
SK-MEL-5 melanoma
  GI50: 846 nM
  TGI: 2100 nM
SK-OV-3 ovarian
  GI50: 1900 nM
  TGI: 3310 nM
SN12C renal
  GI50: 679 nM
  TGI: 1980 nM
SNB-19 CNS
  GI50: 1470 nM
  TGI: 2840 nM
SNB-75 CNS
  GI50: 242 nM
  TGI: 1510 nM
SR leukemia
  GI50: 258 nM
  TGI: 751 nM
SW-620 colon
  GI50: 227 nM
  TGI: 740 nM
T-47D breast
  GI50: 173 nM
  TGI: 493 nM
TK-10 renal
  GI50: 329 nM
  TGI: 1130 nM
U251 CNS
  GI50: 255 nM
  TGI: 716 nM
UACC-257 melanoma
  GI50: 244 nM
  TGI: 1010 nM
UACC-62 melanoma
  GI50: 313 nM
  TGI: 1280 nM
UO-31 renal
  GI50: 975 nM
  TGI: 2250 nM
